Read-outs that look alike come from different tables or passages of the source.
Tests used:
Assay type in all cases: biochemical
aggrecanase-1 = target: T1, aggrecanase-1 (Homo sapiens, UniProt O75173); test: Aggrecanase-1 inhibitory action (Particle Assay, GAG release from aggrecan-containing polyacrylamide particles)
T1 sequence (O75173 213-837): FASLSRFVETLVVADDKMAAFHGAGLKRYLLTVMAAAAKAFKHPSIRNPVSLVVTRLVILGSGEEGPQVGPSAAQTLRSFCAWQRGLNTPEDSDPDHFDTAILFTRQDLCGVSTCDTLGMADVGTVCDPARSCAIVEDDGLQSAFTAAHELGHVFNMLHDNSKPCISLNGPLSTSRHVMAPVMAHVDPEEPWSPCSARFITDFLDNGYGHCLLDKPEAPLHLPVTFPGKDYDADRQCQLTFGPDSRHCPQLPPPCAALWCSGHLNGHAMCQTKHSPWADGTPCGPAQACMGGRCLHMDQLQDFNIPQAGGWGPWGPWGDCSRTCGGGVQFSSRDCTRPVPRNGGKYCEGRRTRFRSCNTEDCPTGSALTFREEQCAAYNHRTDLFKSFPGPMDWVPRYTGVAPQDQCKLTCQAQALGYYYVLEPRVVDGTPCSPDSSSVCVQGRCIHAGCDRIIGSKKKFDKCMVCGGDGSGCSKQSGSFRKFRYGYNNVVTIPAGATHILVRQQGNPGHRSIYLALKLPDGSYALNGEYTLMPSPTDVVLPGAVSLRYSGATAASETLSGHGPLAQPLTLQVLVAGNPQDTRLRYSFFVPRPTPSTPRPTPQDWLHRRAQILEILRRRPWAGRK
Summary of the method: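 Readout was dimethylmethylene blue absorbance (595 nm) of glycosaminoglycan liberated into supernatant, calibrated with whale chondroitin sulfate. Substrate was aggrecan in polyacrylamide particles, digested 15 h at 37° C in Tris-HCl; TC50 (μM) derived from inhibition relative to no-enzyme and no-inhibitor controls.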

MMP-1 = target: T2, MMP-1 (Homo sapiens, UniProt P03956); test: MMP-1 inhibitory action (Type I collagen Activity Measurement kit, FITC-labeled collagen type I)
T2 sequence (P03956 100-469): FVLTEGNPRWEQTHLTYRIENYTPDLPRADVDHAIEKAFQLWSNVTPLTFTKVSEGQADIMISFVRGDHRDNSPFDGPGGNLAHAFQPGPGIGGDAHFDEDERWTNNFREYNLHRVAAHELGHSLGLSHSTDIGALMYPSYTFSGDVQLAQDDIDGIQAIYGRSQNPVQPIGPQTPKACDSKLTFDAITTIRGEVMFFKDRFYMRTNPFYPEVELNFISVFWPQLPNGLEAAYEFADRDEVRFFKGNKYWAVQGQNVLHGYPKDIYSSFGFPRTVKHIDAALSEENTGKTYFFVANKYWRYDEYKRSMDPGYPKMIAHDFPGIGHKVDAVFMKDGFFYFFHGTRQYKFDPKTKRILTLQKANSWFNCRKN

Recombinant Human MMP-13 = target: T3, Recombinant Human MMP-13 (Homo sapiens, UniProt P45452); test: MMP-13 inhibitory activity (MMP-13 specific fluorescent substrate with quencher)
T3 construct: purchased R&D systems 511-MM
Summary of the method: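 IC50 (μM) derived from % inhibition, normalised to wells without enzyme and without inhibitor, fluorescence read at 325/405 nm. Enzyme and compound preceded addition of the quenched 7-MCA…DPA substrate; Tris-HCl buffer, 25 °C for 1 h, acetic-acid stop.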

[1] = Experimental Example 1, read-out: IC50 AG1
[2] = Experimental Example 2, read-out: IC50 MMP1
[3] = Experimental Example 3, read-out: IC50 MMP13
[4] = aggrecanase-1 inhibitory action, read-out: IC50 AG1 (Experimental Example 1)
[5] = MMP-1 inhibitory action, FITC-labeled collagen type I, 37° C. for 3 hr, read-out: IC50 MMP1 (Experimental Example 2)
[6] = Recombinant Human MMP-13, fluorescent substrate, 25° C. for 1 h, read-out: IC50 MMP13 (Experimental Example 3)

Structure (SMILES)	IC50 (aggrecanase-1; [1])	IC50 (MMP-1; [2])	IC50 (Recombinant Human MMP-13; [3])	IC50 (aggrecanase-1; [4])	IC50 (MMP-1; [5])	IC50 (Recombinant Human MMP-13; [6])
CC1(c2ccccc2Cl)CC1(NS(=O)(=O)c1ccc(-c2cc(C(F)(F)F)on2)s1)C(=O)O (stereo not drawn) [Example 2-616]	< 0.1 µM	< 1 µM	< 1 µM			
CCN(CC)CC1(c2ccccc2)CC1(NS(=O)(=O)c1ccc(-c2cc(C(F)(F)F)on2)s1)C(=O)O (stereo not drawn) [Example 2-343]	≥ 1 µM	≥ 10 µM	≥ 1 µM			
O=C(O)[C@]1(NS(=O)(=O)c2ccc(-c3ccc(Cl)cc3)s2)C[C@@H]1c1ccccc1Br [Example 2-178]				< 0.1 µM	≥ 10 µM	< 1 µM
CC1[C@H](c2ccccc2)[C@]1(NS(=O)(=O)c1ccc2c(c1)Cc1cc(Br)ccc1-2)C(=O)O (stereo partly drawn) [Example 2-286]	< 0.1 µM	≥ 1 µM	< 0.1 µM			
O=C(O)C1(NS(=O)(=O)c2ccc(OCc3ccc(Cl)cc3Cl)cc2)C2CCCc3ccccc3C21 (stereo not drawn) [Example 2-363]	≥ 1 µM	≥ 10 µM	< 1 µM			
O=C(O)C1(NS(=O)(=O)c2ccc(-c3cc(C(F)(F)F)on3)s2)CC1c1cc(CO)on1 (stereo not drawn) [Example 2-318]	≥ 1 µM	≥ 10 µM	≥ 10 µM			
O=C(NCCCC1(c2ccccc2)CC1(NS(=O)(=O)c1ccc(-c2ccc(Cl)cc2)s1)C(=O)O)OC1CCCC1 (stereo not drawn) [Example 2-298]	< 0.1 µM	≥ 1 µM	< 0.1 µM			
COCCN(C)C(=O)c1ccccc1C1CC1(NS(=O)(=O)c1ccc(-c2ccc(Cl)cc2)s1)C(=O)O (stereo not drawn) [Example 2-71]				< 0.1 µM	≥ 10 µM	< 1 µM
O=C(O)[C@@]1(NS(=O)(=O)c2ccc3c(c2)Cc2cc(Br)ccc2-3)C[C@H]1c1ccccc1 [Example 1-109]				< 1 µM	≥ 10 µM	< 1 µM
Cc1ncc(-c2ccc(S(=O)(=O)NC3(C(=O)O)CC3c3ccccc3)s2)o1 (stereo not drawn) [Example 2-79]				≥ 10 µM	≥ 10 µM	≥ 10 µM
COCC(=O)NCC1(c2ccccc2)CC1(NS(=O)(=O)c1ccc(-c2ccc(Cl)cc2)s1)C(=O)O (stereo not drawn) [Example 2-398]	< 1 µM	≥ 10 µM	< 1 µM			
COc1cnn(-c2ccc(S(=O)(=O)N[C@@]3(C(=O)O)C[C@@H]3c3ccccc3)cn2)c1 [Example 2-482]	≥ 1 µM	≥ 10 µM	< 0.1 µM			
O=C(O)C1(NS(=O)(=O)c2ccc(-c3cc(C(F)(F)F)on3)s2)CC1c1cccc(NCc2cccnc2)c1 (stereo not drawn) [Example 2-213]				< 0.1 µM	< 1 µM	< 0.1 µM
CC1[C@H](c2ccccc2)[C@]1(NS(=O)(=O)N1Cc2ccc(Br)cc2C1)C(=O)O (stereo partly drawn) [Example 2-505]	≥ 1 µM	≥ 1 µM	< 1 µM			
O=C(O)C1(NS(=O)(=O)c2ccc(-c3ccc(Cl)cc3)s2)CC1c1ccc(OCc2ccccc2)cc1 (stereo not drawn) [Example 2-225]				≥ 1 µM	≥ 10 µM	< 1 µM
CN1CCC2C(c3ccccc31)C2(NS(=O)(=O)c1ccc(-c2ccc(Cl)cc2)s1)C(=O)O (stereo not drawn) [Example 2-430]	< 0.1 µM	≥ 1 µM	< 0.1 µM			
O=C(NCCO)OCC1(c2ccccc2)CC1(NS(=O)(=O)c1ccc(-c2cc(C(F)(F)F)on2)s1)C(=O)O (stereo not drawn) [Example 2-333]	< 1 µM	≥ 1 µM	< 1 µM			
O=C1OCC2C(c3ccccc3)C12NS(=O)(=O)c1ccc(-c2cc(C(F)(F)F)on2)s1 (stereo not drawn) [Example 2-312]	≥ 1 µM	≥ 10 µM	≥ 10 µM			
O=C(O)[C@]1(NS(=O)(=O)c2ccc(-c3cc(CF)on3)s2)C[C@@H]1c1ccccc1 [Example 2-98]				< 0.1 µM	≥ 1 µM	< 0.1 µM
CCOC(=O)CSCC1(c2ccccc2)CC1(NS(=O)(=O)c1ccc(-c2ccc(Cl)cc2)s1)C(=O)O (stereo not drawn) [Example 2-352]	< 0.1 µM	≥ 1 µM	< 0.1 µM			

Structure (SMILES)	IC50 (aggrecanase-1; [1])	IC50 (MMP-1; [2])	IC50 (Recombinant Human MMP-13; [3])	IC50 (aggrecanase-1; [4])	IC50 (MMP-1; [5])	IC50 (Recombinant Human MMP-13; [6])
C[C@]1(c2ccccc2)C[C@@]1(NS(=O)(=O)c1ccc(N2CCC(F)(F)C2)s1)C(=O)O [Example 2-467]	≥ 1 µM	≥ 10 µM	≥ 10 µM			
CC1[C@H](c2ccccc2)[C@]1(NS(=O)(=O)c1ccc(-n2cc(C(F)(F)F)cn2)s1)C(=O)O (stereo partly drawn) [Example 2-577]	< 0.1 µM	< 1 µM	< 0.1 µM			
COCCN1CCN(S(=O)(=O)N[C@@]2(C(=O)O)C(C)[C@@H]2c2ccccc2)CC1 (stereo partly drawn) [Example 2-534]	≥ 1 µM	≥ 1 µM	≥ 1 µM			
O=C(O)C1(NS(=O)(=O)c2ccc(-c3ccc(Cl)cc3)cc2)CC1c1cccc(NCc2cnc[nH]2)c1 (stereo not drawn) [Example 1-90]				< 1 µM	≥ 1 µM	< 0.1 µM
CC1C(c2ccccc2)C1(NS(=O)(=O)c1ccc(-c2cccc(CO)c2)s1)C(=O)O (stereo not drawn) [Example 2-525]	< 0.1 µM	< 0.1 µM	< 0.1 µM			
O=C(O)C1(NS(=O)(=O)c2ccc(-c3ccc(F)cc3)s2)CC1c1ccccc1 (stereo not drawn) [Example 2-21]				< 1 µM	≥ 1 µM	< 1 µM
CC1(c2cccc(Cl)c2)CC1(NS(=O)(=O)c1ccc(-c2cc(C(F)(F)F)on2)s1)C(=O)O (stereo not drawn) [Example 2-612]	< 0.1 µM	< 1 µM	≥ 1 µM			
O=C(O)CSCC1(c2ccccc2)CC1(NS(=O)(=O)c1ccc(-c2ccc(Cl)cc2)s1)C(=O)O (stereo not drawn) [Example 2-358]	< 0.1 µM	≥ 1 µM	< 1 µM			
CC1[C@H](c2ccccc2)[C@]1(NS(=O)(=O)N1CCN(c2ccc(Cl)nn2)CC1)C(=O)O (stereo partly drawn) [Example 2-503]	< 1 µM	≥ 1 µM	< 1 µM			
CC1[C@H](c2ccccc2)[C@]1(NS(=O)(=O)N1CCN(c2ccc(Cl)cn2)CC1)C(=O)O (stereo partly drawn) [Example 2-457]	< 0.1 µM	≥ 1 µM	< 0.1 µM			
O=C(O)[C@@]1(NS(=O)(=O)c2ccc3c(c2)Cc2cc(F)ccc2-3)C[C@H]1c1ccccc1 [Example 2-244]				< 1 µM	≥ 10 µM	< 1 µM
CCC1(c2ccccc2)CC1(NS(=O)(=O)c1ccc2c(c1)Cc1cc(F)ccc1-2)C(=O)O (stereo not drawn) [Example 2-146]				< 1 µM	≥ 10 µM	< 1 µM
CC1C(NS(=O)(=O)c2ccc(-c3cc(C(F)(F)F)on3)s2)(C(=O)O)C1(C)c1ccccc1 (stereo not drawn) [Example 2-598]	< 0.1 µM	≥ 1 µM	< 1 µM			
CN(C)c1cccc(C2CC2(NS(=O)(=O)c2ccc(-c3ccc(Cl)cc3)s2)C(=O)O)c1 (stereo not drawn) [Example 1-133]				< 0.1 µM	≥ 1 µM	< 0.1 µM
C[C@]1(c2ccccc2)C[C@@]1(NS(=O)(=O)c1ccc(-c2cc(CF)sn2)s1)C(=O)O [Example 2-121]				< 0.1 µM	< 1 µM	< 0.1 µM
O=C(O)C1(NS(=O)(=O)c2ccc(-c3cc(C(F)(F)F)on3)s2)C2CCC(O)c3ccccc3C21 (stereo not drawn) [Example 2-438]	< 0.1 µM	< 1 µM	< 0.1 µM			
C[C@]1(c2ccccc2)C[C@@]1(NS(=O)(=O)c1ccc(-n2cc(C(F)(F)F)cn2)s1)C(=O)O [Example 2-599]	< 0.1 µM	≥ 1 µM	< 1 µM			
CS(=O)(=O)Nc1cccc(C2CC2(NS(=O)(=O)c2ccc(-c3ccc(Cl)cc3)s2)C(=O)O)c1 (stereo not drawn) [Example 1-130]				< 0.1 µM	≥ 1 µM	< 0.1 µM
O=C(O)C1(NS(=O)(=O)c2ccc(-c3cc(C(F)(F)F)on3)s2)CC1c1cc(CCO)on1 (stereo not drawn) [Example 2-316]	≥ 1 µM	≥ 10 µM	≥ 10 µM			
O=C(Nc1cccc(C2CC2(NS(=O)(=O)c2ccc(-c3ccc(Cl)cc3)cc2)C(=O)O)c1)c1ccncc1 (stereo not drawn) [Example 1-63]				< 1 µM	≥ 1 µM	< 0.1 µM
